Measured values taken from paper PMC6273431, “The Structure–Antimicrobial Activity Relationships of a Promising Class of the Compounds Containing the N-Arylpiperazine Scaffold” (Molecules, 2016).
Read-outs that look alike come from different tables or passages of the source.

Experiments:
[1] = tested on: Mycobacterium avium subsp. paratuberculosis CIT03; experiment: antimycobacterial MIC, MB broth, alamarBlue; format: cell-based; settings: 264 h, read-out: MIC MAP
Procedure: The Mycobacterium avium subsp. paratuberculosis CIT03 strain was grown in the Middlebrook (MB) broth, supplemented with the Oleic-Albumin-Dextrose-Catalase Supplement (OADC, Becton Dickinson, Oxford, UK) and the mycobactin J (2 μg/mL). The commercially available siderophore mycobactin J reduced the incubation period of M. avium subsp. paratuberculosis in a complex medium when compared to the medium containing the mycobactin P as a growth factor.
The identification of the isolate was performed using biochemical and molecular protocols. At a log phase growth, a culture sample (10 mL) was centrifuged at 15,000 rpm/20 min using a bench top centrifuge (Model CR 4-12, Jouan Inc., London, UK). Following removal of the supernatant, the pellet was washed in fresh Middlebrook 7H9GC broth and re-suspended in fresh supplemented MB broth (10 mL). The turbidity was adjusted to match the McFarland standard No. 1 containing approximately 3.0 × 10^8 Colony Forming Units (CFU) with the MB broth. Further 1:20 dilution of the culture was performed in the MB broth. The susceptibility of given mycobacterial species was investigated in a 96-well plate format. In those experiments, sterile deionised water (300 μL) was added to all outer-perimeter wells of the plates to minimize an evaporation of the medium in the test wells during the incubation process. Each evaluated compound (100 μL) was incubated with the mycobacterial species (100 μL). The dilutions of a particular compound were prepared in triplicate. For all inspected derivatives, final concentrations ranged from 1000 μg/mL to 60 μg/mL. All compounds were prepared in dimethyl sulfoxide (DMSO; Sigma-Aldrich, Irvine, UK) and subsequent dilutions were made in the supplemented MB broth. The plates were sealed with a parafilm and incubated at 37 °C for 11 days. Following the incubation, a 10% addition of a water‑soluble dye, the alamarBlue reagent (AbD Serotec, Kidlington, UK), was mixed into each well. Absorbance readings at 570 nm and 600 nm were taken, initially for background subtraction and after 24 h re-incubation. The subtraction is necessary for strongly coloured compounds, where the colour may interfere with the interpretation of any colour change. For non-interfering compounds, a blue colour in a well was interpreted as an absence of a growth and a pink colour was scored as a growth.
The minimum inhibitory concentration (MIC) was defined as the lowest concentration of the compound at which no visible bacterial growth was observed. In other words, the MIC was the lowest concentration that prevented a visual colour change from blue to pink. The MIC value has been routinely and widely used in bacterial assays and it has been a standard detection limit according to the Clinical and Laboratory Standards Institute. The clinically used antimycobacterial drugs INH and RIF were applied as the standards.

M. marinum CAMP 5644 = experiment: antimycobacterial MIC, broth dilution micromethod; format: cell-based; settings: Mycobacterium marinum, CAMP5644, 504 h, 21 days at 28 °C
[2] = parameters: method as in PMID 16209439, PMID 16209439; settings: potentiometric titration; cited from earlier work
[3] = tested on: Candida albicans CCM 8261; experiment: candidacidal MIC, microdilution method; format: cell-based; settings: Candida albicans, CCM8261, 48 h, 37 °C
Procedure: (§1) In order to provide a look into the potential usefulness of the derivatives 5a–l as the candidates for a development of anti-yeast (candidacidal) agents, they were in vitro tested against Candida albicans CCM 8261 (CA 8261), C. krusei CCM 8271 (CK 8271) and C. parapsilosis CCM 8260 (CP 8260). The yeasts were obtained from the Czech Collection of Microorganisms (Masaryk University, Faculty of Science, Brno, Czech Republic). They were grown and kept on Sabouraud agar (Oxoid Limited, Basingstoke, UK).
(§2) For the screening, the microdilution method according to the Antimicrobial Susceptibility Testing Protocols was applied. The inoculum was prepared from the cultures grown on Sabouraud agar. With the sterile solution of NaCl, the inoculum was prepared to the 0.5 McFarland units using the Densi-La-Meter densitometer (LIAP, Riga, Latvia) and diluted a thousand‑fold with the Roswell Park Memorial Institute (RPMI) 1640 medium (Sigma-Aldrich, Darmstadt, Germany). Prepared suspension was used for an inoculation of microtitre plates. Final concentration in wells ranged from 5.0 × 10^2 CFU/mL to 2.5 × 10^3 CFU/mL. […] For the determination of the MICs, the stock solutions of all the tested compounds were diluted in the microtitre checkerboard to the final concentration varying from 128 μg/mL to 0.125 μg/mL. Drug-free control, sterility control and the control consisted of a medium and DMSO alone were included. Inoculated microtitre plates were incubated for 48 h in the darkness at 37 °C in an aerobic atmosphere. The results were estimated against static light.
(§3) The MIC was defined as the lowest concentration of the tested compound at which no visible growth was observed. To ensure reproducibility of the results, each candidacidal MIC assay was performed triplicate on separate occasions. It was important to note that all the MICs from the in vitro antimicrobial screening were expressed in μg/mL units and were available in Tables S3 and S4 (Supplementary Materials).

Candida krusei CCM 8271 = experiment: candidacidal MIC, microdilution method; format: cell-based; settings: Pichia kudriavzevii, CCM8271, 48 h, 37 °C
Procedure: as §1, §2, §3

[4] = tested on: Candida parapsilosis CCM 8260; experiment: candidacidal MIC, microdilution method; format: cell-based; settings: Lodderomyces parapsilosis, CCM8260, 48 h, 37 °C
Procedure: as §1, §2, §3

[5] = tested on: Enterococcus faecalis ATCC 29212; experiment: antibacterial MIC, microtitration broth method; format: cell-based; settings: 37 °C
Procedure: (§4) Prior to the testing, each strain was transferred into a nutrient agar (Oxoid Limited, Basingstoke, UK), which was enriched with 5% defibrinated bovine blood.
(§5) The MICs were determined by the microtitration broth method in the cation-adjusted Mueller-Hinton broth (Becton Dickinson, Oxford, UK) according to an international interdisciplinary Clinical Laboratory Standard Institute guidelines.
(§6) The checkerboard was inoculated by the bacterial inocula, which were prepared in a phosphate buffered saline solution with the pH = 7.2–7.3 to simulate physiological pH. The final concentration of each inoculum in the final volume of 100 μL in the wells was approximately 7.5 × 10^6 CFU/mL. Drug-free controls, sterility controls and the controls consisted of the broth with DMSO were included. The determination of the results was performed visually after 24 h of static incubation in the darkness at 37 °C in an aerobic atmosphere.
(§7) To ensure reproducibility, each antibacterial MIC assay was performed triplicate on separate occasions.

[6] = tested on: Staphylococcus aureus ATCC 29213; experiment: antibacterial MIC, microtitration broth method; format: cell-based; settings: 37 °C
Procedure: as §4, §5, §6, §7

[7] = tested on: Escherichia coli ATCC 25922; experiment: antibacterial MIC, microtitration broth method; format: cell-based; settings: 37 °C
Procedure: as §4, §5, §6, §7

[8] = tested on: methicillin-resistant Staphylococcus aureus 63718; experiment: antibacterial MIC, microtitration broth method; format: cell-based; settings: MRSA, 37 °C
Procedure: as §4, §5, §6, §7

M. smegmatis ATCC 700084 = experiment: antimycobacterial MIC, broth dilution micromethod; format: cell-based; settings: Mycolicibacterium smegmatis, ATCC700084, 72 h, 3 days at 37 °C
M. kansasii DSM 44162 = experiment: antimycobacterial MIC, broth dilution micromethod; format: cell-based; settings: Mycobacterium kansasii, DSM44162, 168 h, 7 days at 37 °C
[9] = parameters: method as in PMID 16209439, PMID 16209439, doi:10.2478/s11696-006-0007-y; settings: octan-1-ol/phosphate buffer (pH = 7.4); cited from earlier work

Structure (SMILES): COc1ccccc1NC(=O)OCC(O)CN1CCN(c2ccc(F)cc2)CC1 (stereo not drawn) [Compound 5g]
- MIC ([1]; 37 °C, 11 days): 2270 µM
- MIC [1]: 1000 µg/mL
- MIC (M. marinum CAMP 5644): 145 µM
- MIC (M. marinum CAMP 5644; Table S3): 64 µg/mL
- pKa [2]: 6.73
- MIC [3]: > 291 µM
- MIC ([3]; Table S4): > 128 µg/mL
- MIC (Candida krusei CCM 8271): > 291 µM
- MIC (Candida krusei CCM 8271; Table S4): > 128 µg/mL
- MIC [4]: > 291 µM
- MIC ([4]; Table S4): > 128 µg/mL
- MIC ([5]; ATCC29212, 24 h): > 582 µM
- MIC ([5]; ATCC29212, Table S4, 24 h): > 256 µg/mL
- MIC ([6]; ATCC29213, 24 h): > 582 µM
- MIC ([6]; ATCC29213, Table S4, 24 h): > 256 µg/mL
- MIC ([7]; ATCC25922, 24 h): > 582 µM
- MIC ([7]; ATCC25922, Table S4, 24 h): > 256 µg/mL
- MIC ([8]; 24 h): > 582 µM
- MIC ([8]; Table S4, 24 h): > 256 µg/mL
- MIC (M. smegmatis ATCC 700084): 582 µM
- MIC (M. smegmatis ATCC 700084; Table S3): 256 µg/mL
- MIC (M. kansasii DSM 44162): 145 µM
- MIC (M. kansasii DSM 44162; Table S3): 64 µg/mL
- log Pexp [9]: 3.61

Structure (SMILES): CCOc1cccc(NC(=O)OCC(O)CN2CCN(c3cccc(C(F)(F)F)c3)CC2)c1.Cl (stereo not drawn) [Compound 5d, 1-[3-(3-ethoxyphenylcarbamoyl)oxy-2-hydroxypropyl]-4-(3-trifluoromethylphenyl)piperazin-1-ium chloride]
- MIC ([1]; 37 °C, 11 days): 1980 µM
- MIC [1]: 1000 µg/mL
- MIC (M. marinum CAMP 5644): 127 µM
- MIC (M. marinum CAMP 5644; Table S3): 64 µg/mL
- pKa [2]: 5.35
- MIC [3]: > 254 µM
- MIC ([3]; Table S4): > 128 µg/mL
- MIC (Candida krusei CCM 8271): > 254 µM
- MIC (Candida krusei CCM 8271; Table S4): > 128 µg/mL
- MIC [4]: > 254 µM
- MIC ([4]; Table S4): > 128 µg/mL
- MIC ([5]; ATCC29212, 24 h): > 508 µM
- MIC ([5]; ATCC29212, Table S4, 24 h): > 256 µg/mL
- MIC ([6]; ATCC29213, 24 h): > 508 µM
- MIC ([6]; ATCC29213, Table S4, 24 h): > 256 µg/mL
- MIC ([7]; ATCC25922, 24 h): > 508 µM
- MIC ([7]; ATCC25922, Table S4, 24 h): > 256 µg/mL
- MIC ([8]; 24 h): > 508 µM
- MIC ([8]; Table S4, 24 h): > 256 µg/mL
- MIC (M. smegmatis ATCC 700084): 127 µM
- MIC (M. smegmatis ATCC 700084; Table S3): 64 µg/mL
- MIC (M. kansasii DSM 44162): 31.8 µM
- MIC (M. kansasii DSM 44162; Table S3): 16 µg/mL
- log Pexp [9]: 3.72

Structure (SMILES): COc1ccc(NC(=O)OCC(O)CN2CCN(c3ccc(F)cc3)CC2)cc1 (stereo not drawn) [Compound 5k]
- MIC ([1]; 37 °C, 11 days): 2270 µM
- MIC [1]: 1000 µg/mL
- MIC (M. marinum CAMP 5644): 582 µM
- MIC (M. marinum CAMP 5644; Table S3): 256 µg/mL
- pKa [2]: 7.24
- MIC [3]: > 291 µM
- MIC ([3]; Table S4): > 128 µg/mL
- MIC (Candida krusei CCM 8271): > 291 µM
- MIC (Candida krusei CCM 8271; Table S4): > 128 µg/mL
- MIC [4]: > 291 µM
- MIC ([4]; Table S4): > 128 µg/mL
- MIC ([5]; ATCC29212, 24 h): > 582 µM
- MIC ([5]; ATCC29212, Table S4, 24 h): > 256 µg/mL
- MIC ([6]; ATCC29213, 24 h): > 582 µM
- MIC ([6]; ATCC29213, Table S4, 24 h): > 256 µg/mL
- MIC ([7]; ATCC25922, 24 h): > 582 µM
- MIC ([7]; ATCC25922, Table S4, 24 h): > 256 µg/mL
- MIC ([8]; 24 h): > 582 µM
- MIC ([8]; Table S4, 24 h): > 256 µg/mL
- MIC (M. smegmatis ATCC 700084): 582 µM
- MIC (M. smegmatis ATCC 700084; Table S3): 256 µg/mL
- MIC (M. kansasii DSM 44162): 291 µM
- MIC (M. kansasii DSM 44162; Table S3): 128 µg/mL
- log Pexp [9]: 3.42
